We go through seven compounds from ChEMBL document CHEMBL1136972, “Repenins A-D, four new antioxidative coumarinolignoids from Duranta repens Linn” (Bioorg Med Chem Lett, 2009).

Structures are written as SMILES.

This test concerns Radical scavenging activity. The test can be described thus: Antioxidant activity assessed as DPPH free radical scavenging activity. The test is classed as functional. For orientation: Loss of DPPH colour is used to gauge radical scavenging.

For orientation: IC50 means the concentration needed to halve the response being measured. Consider `COc1ccc(O)c(C(C)(C)C)c1.COc1ccc(O)cc1C(C)(C)C` [BUTYLATED HYDROXYANISOLE], for which the IC50 worked out at 43 µM. Regarding `COc1cc([C@H]2Oc3c(OC)cc4ccc(=O)oc4c3O[C@@H]2CO)ccc1O` [CLEOMISCOSIN A], the IC50 worked out at 612 µM. With `COc1cc([C@H]2Oc3c(OC)cc4ccc(=O)oc4c3O[C@@H]2COC(C)=O)ccc1O` [DURANTIN A], the IC50 was 625 µM. The value for `COc1cc([C@H]2Oc3c(OC)cc4ccc(=O)oc4c3O[C@@H]2COC(=O)/C=C/c2ccc(O)cc2)ccc1O` [REPENIN A] was 530 µM.

In the case of `COc1cc(/C=C/C(=O)OC[C@H]2Oc3c(c(OC)cc4ccc(=O)oc34)O[C@@H]2c2ccc(O)c(OC)c2)ccc1O` [REPENIN B], the IC50 is 420 µM. As for `COc1cc([C@H]2Oc3c(OC)cc4ccc(=O)oc4c3O[C@@H]2COC(=O)/C=C/c2ccc(O)c(O)c2)ccc1O` [REPENIN C], the figure is 450 µM; as for `COc1cc([C@H]2Oc3c(OC)cc4ccc(=O)oc4c3O[C@@H]2COC(=O)c2ccc(O)c(O)c2)cc(OC)c1O` [REPENIN D], 510 µM.
